Tests used:
Format in all cases: in vivo
[1] = test system: Trialeurodes vaporariorum; assay: Whiteflies on tomatoes (Example 5)
Description: Example 5 describes the effect of the combination according to the invention against whiteflies (Trialeurodes vaporariorum) on tomatoes (Lycopersicon esculentum). The test was carried out under GEP according to EPPO guideline PP 1/36(2) with 3 repetitions of in each case 4 plants. At the start of the infection, the plants were treated as follows: • 1. untreated • 2. compound (I-1) as SL 200 (compound according to formula (I-1), 17% strength), 50 g of active compound/ha • 3. azadirachtin 30 g of active compound/ha, NeemAzal® • 4. azadirachtin 15 g of active compound/ha, NeemAzal® • 5. azadirachtin 5 g of active compound/ha, NeemAzal® • 6. compound (I-1) as SL 200+azadirachtin, 50+30 g of active compound/ha • 7. compound (I-1) as SL 200+azadirachtin, 50+15 g of active compound/ha • 8. compound (I-1) as SL 200+azadirachtin, 50+5 g of active compound/ha • 9. positive control imidacloprid 100 g of active compound/ha
(§1) The spray solution was prepared by mixing commercial formulations and using water to adjust to the concentration mentioned. The application rate was 1000 l/ha. 2 applications were carried out at intervals of 14 days. The number of adult flies and the number of larvae were scored on days 2 to 21 after the first application. What is shown is the effect of the products, which becomes evident in a reduction of the number of insects or larvae compared to the untreated control. Imidacloprid was also tested, as positive control.

[2] = test system: Trialeurodes vaporariorum; assay: Whiteflies on tomatoes, further test (Example 6)
Description: This example describes a further test with the formulation according to the invention against whiteflies (Trialeurodes vaporariorum) on tomatoes (Lycopersicon esculentum). The test was carried out under GEP according to EPPO guideline PP 1/36(2) with 4 repetitions of in each case 5 plants. At the start of the infection, the plants were treated as follows: • 1. untreated • 2. compound (I-1) as SL 200 (compound according to formula (I-1), 17% strength), 50 g of active compound/ha • 3. azadirachtin 15 g of active compound/ha, NeemAzal® • 4. azadirachtin 5 g of active compound/ha, NeemAzal® 5. compound (I-1) as SL 200+azadirachtin, 50+15 g of active compound/ha • 6. compound (I-1) as SL 200+azadirachtin, 50+5 g of active compound/ha • 7. positive control imidacloprid 100 g of active compound/ha
as §1, with “10” for “14”, “32” for “21”

Tetranychus urticae = assay: Greenhouse red spider mite on roses (Example 7)
Description: Example 7 describes the effect of the combination according to the invention on the greenhouse red spider mite (Tetranychus urticae) on roses. The test was carried out in a greenhouse under GEP according to EPPO guideline PP 1/168(2) with 4 repetitions of in each case 4 plants. At the start of the infection, the plants were treated as follows: • 1. untreated • 2. compound (I-1) as SL 200 (compound according to formula (I-1), 17% strength), 50 g of active compound/ha • 3. azadirachtin 30 g of active compound/ha, NeemAzal® • 4. azadirachtin 5 g of active compound/ha, NeemAzal® • 5. compound (I-1) as SL 200+azadirachtin, 50+30 g of active compound/ha • 6. compound (I-1) as SL 200+azadirachtin, 50+5 g of active compound/ha • 7. positive control imidacloprid 100 g of active compound/ha
The spray solution was prepared by mixing commercial formulations and using water to adjust to the concentration mentioned. The application rate was 1000 l/ha. 2 applications were carried out at intervals of 14 days. The number of spider mites on days 2 to 32 after the first application was scored. What is shown is the effect of the products, which becomes evident in a reduction of the number of spider mites compared to the untreated control.

Spodoptera frugiperda = assay: Fall armyworm caterpillars on maize, feeding damage (Example 8); settings: reduction of feeding damage
[3] = Day 2, (I-1) 50, azadirachtin 30, (I-1)+azadirachtin 50+30, imidacloprid 100 g/ha
[4] = Day 2, azadirachtin 5, (I-1)+azadirachtin 50+5 g/ha
[5] = Day 2, azadirachtin 15, (I-1)+azadirachtin 50+15 g/ha
[6] = Day 7, (I-1) 50, azadirachtin 30, (I-1)+azadirachtin 50+30, imidacloprid 100 g/ha
[7] = Day 7, azadirachtin 5, (I-1)+azadirachtin 50+5 g/ha
[8] = Day 7, azadirachtin 15, (I-1)+azadirachtin 50+15 g/ha
[9] = Day 14, (I-1) 50, azadirachtin 30, (I-1)+azadirachtin 50+30, imidacloprid 100 g/ha
[10] = Day 14, azadirachtin 5, (I-1)+azadirachtin 50+5 g/ha
[11] = Day 14, azadirachtin 15, (I-1)+azadirachtin 50+15 g/ha
[12] = Day 21, (I-1) 50, azadirachtin 30, (I-1)+azadirachtin 50+30, imidacloprid 100 g/ha
[13] = Day 21, azadirachtin 5, (I-1)+azadirachtin 50+5 g/ha
[14] = Day 21, azadirachtin 15, (I-1)+azadirachtin 50+15 g/ha
[15] = Day 2, (I-1) 50, azadirachtin 15, (I-1)+azadirachtin 50+15, imidacloprid 100 g/ha
[16] = Day 7, (I-1) 50, azadirachtin 15, (I-1)+azadirachtin 50+15, imidacloprid 100 g/ha
[17] = Day 14, (I-1) 50, azadirachtin 15, (I-1)+azadirachtin 50+15, imidacloprid 100 g/ha
[18] = Day 21, (I-1) 50, azadirachtin 15, (I-1)+azadirachtin 50+15, imidacloprid 100 g/ha
[19] = Days 28-32, (I-1) 50, azadirachtin 15, (I-1)+azadirachtin 50+15, imidacloprid 100 g/ha
[20] = Days 28-32, azadirachtin 5, (I-1)+azadirachtin 50+5 g/ha
[21] = Days 28-32, (I-1) 50, azadirachtin 30, (I-1)+azadirachtin 50+30, imidacloprid 100 g/ha
[22] = Days 35-42, (I-1) 50, azadirachtin 30, (I-1)+azadirachtin 50+30, imidacloprid 100 g/ha

C/C=C(\C)C(=O)O[C@H]1C[C@@H](OC(C)=O)[C@@]2(C(=O)OC)CO[C@H]3[C@@H](O)[C@@](C)([C@]45O[C@@]4(C)[C@H]4C[C@@H]5O[C@@H]5OC=C[C@@]54O)[C@H]4[C@]1(CO[C@]4(O)C(=O)OC)[C@@H]32 [azadirachtin]
Activity against adults [%] [1, 3]: 45%
Activity against larvae [%] [1, 3]: 0%
Activity against adults [%] [1, 4]: 23%
Activity against larvae [%] [1, 4]: 0%
Activity against adults [%] [1, 5]: 47%
Activity against larvae [%] [1, 5]: 0%
Activity against adults [%] [1, 6]: 47%
Activity against larvae [%] [1, 6]: 2%
Activity against adults [%] [1, 7]: 7%
Activity against larvae [%] [1, 7]: 24%
Activity against adults [%] [1, 8]: 54%
Activity against larvae [%] [1, 8]: 13%
Activity against adults [%] [1, 9]: 32%
Activity against larvae [%] [1, 9]: 13%
Activity against adults [%] [1, 10]: 0%
Activity against larvae [%] [1, 10]: 12%
Activity against adults [%] [1, 11]: 49%
Activity against larvae [%] [1, 11]: 37%
Activity against adults [%] [1, 12]: 56%
Activity against larvae [%] [1, 12]: 0%
Activity against adults [%] [1, 13]: 16%
Activity against larvae [%] [1, 13]: 0%
Activity against adults [%] [1, 14]: 80%
Activity against larvae [%] [1, 14]: 0%
Activity against adults [%] [2, 15]: 57%
Activity against larvae [%] [2, 15]: 0%
Activity against adults [%] [2, 4]: 41%
Activity against larvae [%] [2, 4]: 0%
Activity against adults [%] [2, 16]: 64%
Activity against larvae [%] [2, 16]: 0%
Activity against adults [%] [2, 7]: 41%
Activity against larvae [%] [2, 7]: 0%
Activity against adults [%] [2, 17]: 65%
Activity against larvae [%] [2, 17]: 20%
Activity against adults [%] [2, 10]: 40%
Activity against larvae [%] [2, 10]: 0%
Activity against adults [%] [2, 18]: 76%
Activity against larvae [%] [2, 18]: 32%
Activity against adults [%] [2, 13]: 47%
Activity against larvae [%] [2, 13]: 0%
Activity against adults [%] [2, 19]: 76%
Activity against larvae [%] [2, 19]: 37%
Activity against adults [%] [2, 20]: 40%
Activity against larvae [%] [2, 20]: 0%
Activity against Tetranychus urticae [%] (Tetranychus urticae; [3]): 21%
Activity against Tetranychus urticae [%] (Tetranychus urticae; [4]): 30%
Activity against Tetranychus urticae [%] (Tetranychus urticae; [6]): 16%
Activity against Tetranychus urticae [%] (Tetranychus urticae; [7]): 0%
Activity against Tetranychus urticae [%] (Tetranychus urticae; [9]): 20%
Activity against Tetranychus urticae [%] (Tetranychus urticae; [10]): 10%
Activity against Tetranychus urticae [%] (Tetranychus urticae; [12]): 7%
Activity against Tetranychus urticae [%] (Tetranychus urticae; [13]): 19%
Activity against Tetranychus urticae [%] (Tetranychus urticae; [21]): 0%
Activity against Tetranychus urticae [%] (Tetranychus urticae; [20]): 6%
Activity against Spodoptera frugiperda [%] (Spodoptera frugiperda; [6]): 0%
Activity against Spodoptera frugiperda [%] (Spodoptera frugiperda; [7]): 0%
Activity against Spodoptera frugiperda [%] (Spodoptera frugiperda; [9]): 7%
Activity against Spodoptera frugiperda [%] (Spodoptera frugiperda; [10]): 29%
Activity against Spodoptera frugiperda [%] (Spodoptera frugiperda; [12]): 53%
Activity against Spodoptera frugiperda [%] (Spodoptera frugiperda; [13]): 61%
Activity against Spodoptera frugiperda [%] (Spodoptera frugiperda; [21]): 84%
Activity against Spodoptera frugiperda [%] (Spodoptera frugiperda; [20]): 77%
Activity against Spodoptera frugiperda [%] (Spodoptera frugiperda; [22]): 80%
Activity against Spodoptera frugiperda [%] (Spodoptera frugiperda; Days 35-42, azadirachtin 5, (I-1)+azadirachtin 50+5 g/ha): 81%

O=C1C=C(N(Cc2ccc(Cl)nc2)CC(F)F)CO1 [(I-1), 4-{[(6-chloropyrid-3-yl)methyl](2,2-difluoroethyl)amino}furan-2(5H)-one]
Activity against adults [%] [1, 3]: 73%
Activity against larvae [%] [1, 3]: 0%
Activity against adults [%] [1, 6]: 75%
Activity against larvae [%] [1, 6]: 18%
Activity against adults [%] [1, 9]: 22%
Activity against larvae [%] [1, 9]: 0%
Activity against adults [%] [1, 12]: 57%
Activity against larvae [%] [1, 12]: 14%
Activity against adults [%] [2, 15]: 86%
Activity against larvae [%] [2, 15]: 0%
Activity against adults [%] [2, 16]: 88%
Activity against larvae [%] [2, 16]: 0%
Activity against adults [%] [2, 17]: 93%
Activity against larvae [%] [2, 17]: 18%
Activity against adults [%] [2, 18]: 96%
Activity against larvae [%] [2, 18]: 4%
Activity against adults [%] [2, 19]: 67%
Activity against larvae [%] [2, 19]: 68%
Activity against Tetranychus urticae [%] (Tetranychus urticae; [3]): 28%
Activity against Tetranychus urticae [%] (Tetranychus urticae; [6]): 15%
Activity against Tetranychus urticae [%] (Tetranychus urticae; [9]): 43%
Activity against Tetranychus urticae [%] (Tetranychus urticae; [12]): 12%
Activity against Tetranychus urticae [%] (Tetranychus urticae; [21]): 15%
Activity against Spodoptera frugiperda [%] (Spodoptera frugiperda; [6]): 0%
Activity against Spodoptera frugiperda [%] (Spodoptera frugiperda; [9]): 0%
Activity against Spodoptera frugiperda [%] (Spodoptera frugiperda; [12]): 0%
Activity against Spodoptera frugiperda [%] (Spodoptera frugiperda; [21]): 0%
Activity against Spodoptera frugiperda [%] (Spodoptera frugiperda; [22]): 0%

O=[N+]([O-])NC1=NCCN1Cc1ccc(Cl)nc1 [imidacloprid]
Activity against adults [%] [1, 3]: 51%
Activity against larvae [%] [1, 3]: 0%
Activity against adults [%] [1, 6]: 89%
Activity against larvae [%] [1, 6]: 60%
Activity against adults [%] [1, 9]: 68%
Activity against larvae [%] [1, 9]: 50%
Activity against adults [%] [1, 12]: 65%
Activity against larvae [%] [1, 12]: 52%
Activity against adults [%] [2, 15]: 91%
Activity against larvae [%] [2, 15]: 0%
Activity against adults [%] [2, 16]: 96%
Activity against larvae [%] [2, 16]: 57%
Activity against adults [%] [2, 17]: 98%
Activity against larvae [%] [2, 17]: 70%
Activity against adults [%] [2, 18]: 99%
Activity against larvae [%] [2, 18]: 68%
Activity against adults [%] [2, 19]: 91%
Activity against larvae [%] [2, 19]: 94%
Activity against Tetranychus urticae [%] (Tetranychus urticae; [3]): 20%
Activity against Tetranychus urticae [%] (Tetranychus urticae; [6]): 16%
Activity against Tetranychus urticae [%] (Tetranychus urticae; [9]): 11%
Activity against Tetranychus urticae [%] (Tetranychus urticae; [12]): 27%
Activity against Tetranychus urticae [%] (Tetranychus urticae; [21]): 46%
Activity against Spodoptera frugiperda [%] (Spodoptera frugiperda; [6]): 24%
Activity against Spodoptera frugiperda [%] (Spodoptera frugiperda; [9]): 57%
Activity against Spodoptera frugiperda [%] (Spodoptera frugiperda; [12]): 14%
Activity against Spodoptera frugiperda [%] (Spodoptera frugiperda; [21]): 12%
Activity against Spodoptera frugiperda [%] (Spodoptera frugiperda; [22]): 10%
